Assay results as given in patent publication US9545412B2, “Composition and methods used during anti-HIV treatment” (UNIVERSITE D'AIX-MARSEILLE, priority 2008, dated 2017).

Key:
progerin = experiment: Mass spectrometry (MALDI-ToF) of nuclear envelope proteins, cells of progeria patients; type: cell-based, human; conditions: FTI 2.5 μM
Excerpt: (§1) The fibroblasts of control and Zmpste24^−/− mice as well as the cells lymphoblastoids of progeria patients have been homogenised, the nuclei isolated via ultracentrifugation and the nuclear proteins obtained as described in Blobel and Potter, V. R. Nuclei from rat liver: isolation method that combines purity with high yield, Science 154, 1662-1665, 1966. The proteins of the nuclear lamina were separated via SDS-PAGE electrophoresis, and the strips containing the lamin A, the prelamin A and the progerin were excised. The fragments of the gel were washed twice with […] of a ammonium bicarbonate/acetonitrile mixture (70/30, 25 mM), dried (15 min, 90° C.) and digested (1 h, 60° C.) with trypsin (12 ng/ml, Promega) in the ammonium bicarbonate 25 mM. […] The data collected using 200 laser firings produce spectra analysed with the Data Explorer programme (version 4.0.0.0, Applied Biosystems).
FIG. 11 legend: mass spectrometry analysis of the proteins extracted from the nuclear envelop of the untreated cells (a), of the cells of the progeria patients treated with FTI (2.5 μM, b) or treated with the mixture of pravastatin+zoledronate (1 μM apiece, c). […] Each peak corresponds to the tryptic peptide of the progerin and is marked with the measured monoisotopic mass in experiment and with the theoretical mass (between parentheses). […]

prelamin A [1] = experiment: Mass spectrometry (MALDI-ToF) of nuclear envelope proteins, Zmpste24^−/− mouse fibroblasts; type: cell-based; conditions: FTI-treated Zmpste24^−/− mouse cells
Excerpt: as §1
FIG. 12 legend: a mass spectrometry analysis of the proteins extracted from the nuclear envelop of the untreated fibroblasts (a) or treated with a mixture of pravastatin+zoledronate (1 μM apiece, b) stemming from Zmpste24^−/− mice. […] Each peak corresponds to a tryptic peptide of the progerin and is marked with a monoisotopic mass measured the experiment and with the theoritical mass (in parentheses). […]

control fibroblasts = experiment: Nuclear morphology of control mouse cells in culture; type: cell-based
Excerpt: (§2) The dermal fibroblasts of a control subject (GM00038) and of patients afflicted with progeria and carriers of the mutation G608G (AG11498 and AG01972) were obtained from the Coriell Cell Repository. The HeLa cells come from the American Type Culture Collection. The cells are cultivated in DMEM (Gibco) supplemented with 10% FBS (Gibco) and 1% antibiotic-antimycotic (Gibco). The fibroblasts come from tails of 12-day-old mice (Varela and al., 2005). The concentration and the duration of treatment with the statin and the aminobiphosphonate are indicated in the legende of the figures. During the combined statin+aminobiphosphonate treatment in the presence of farnesol and/or of geranylgeraniol, 1 mM of pravastatin and 1 mM of zoledronate were added to the culture medium with increasing concentrations of farnesol and/or of geranylgeraniol. The percentage of abnormal nuclei is measured 48 h after the beginning of the treatment.
(§3) Quantification of the effect of pravastatin (1 μM) and zoledronate (1 μM), alone or in combination, on the nuclear morphology of Zmpste24^−/− mouse cells (a) and control mouse cells (b) in culture, in the presence of farnesol, geranylgeraniol or both molecules.

Zmpste24^−/− mouse cells = experiment: Nuclear morphology of Zmpste24^−/− mouse cells in culture; type: cell-based; conditions: pravastatin (1 μM) and zoledronate (1 μM), alone or in combination
Excerpt: as §2, §3

[2] = test system: cells of progeria patients; experiment: Quantitative analysis of nuclear morphology of cells of progeria patients; type: cell-based, human; conditions: added to pravastatin+zoledronate, abnormal nuclei measured 48 h after beginning of treatment
Excerpt: as §2, with “During the combined statin+aminobiphosphonate treatment in the presence of farnesol and/or of geranylgeraniol, 1 mM of pravastatin and 1 mM of zoledronate were added to the culture medium with increasing concentrations of farnesol and/or of geranylgeraniol.” left out, “treatment. […]” for “treatment.”
The dilution of the primary antibodies is 1/100 for the goat polyclonal anti-prelamin A antibody (Sc-6214, Santa Cruz Biotechnologies), 1/40 for the anti-lamin A/C antibody (4A7 provided by G. Morris), 1/200 for the Rabbit anti-calreticulin antibody (Stressgen) and 1/100 for the B1 anti-lamin antibody (Abcam). […] Digital images are recorded with a Leica DMR microscope equipped with a CoolSnap camera or with a Leica TCS SP5 confocal microscope. […] More than 100 nuclei were analysed in the control fibroblasts for each of the treatments. The number of nuclei of cells of patients afflicted with progeria analysed is 250 (passage 8), 198 (passage 13) and 150 (passage 20). […]

healthy cells = experiment: Immunohistochemistry: toxicity / deformed nuclei on healthy cells; type: cell-based, human; conditions: Pravastatin 100 μM for 12 hours, Zoledronate 20 μM for 6 hours; in association or alone
Method: (§4) A cell culture is trypsinized, and the cells are counted on a Neubauer cytometer.
(§5) Labtech culture wells (Nunc, ref. 177399) are seeded in an amount of 5×10^4 cells per well.
(§6) The complete culture medium is supplemented by the treatment(s) (statin, NBP, both), and the cells are cultivated for the ad hoc time.
(§7) The cells are fixed in a paraformaldehyde 4% solution (in PBS) for 10 minutes at room temperature.
(§8) […], the cells are incubated for 5 minutes at room temperature in a humidity chamber in 50 μl of permeabilization solution:
(§9) The primary antibody is diluted to 1/100 in 50 μl of incubation solution and placed in contact with the cells for 1 hour at room temperature in a humidity chamber.
(§10) The primary antibodies used are of two types: • Mouse anti-lamin A/C (N-terminal side), clone 4A7, donated by G. Morris (Oswestry, UK) • Goat anti-prelamin A (C-terminal end 15 aa), product SC6214, Santa Cruz Biotchnology, Inc.
(§11) The incubation with the secondary antibody takes place for 1 hour in […] of incubation solution at room temperature in a humidity chamber. […]
(§12) The cells are immersed in one drop of VectaShield (Vector), covered with an object-cover slide and observed under a fluorescence microscope (Leica DMR, Leica Microsystems), equipped with a coolSNAP camera (Princeton). […]

prelamin A [3] = experiment: Immunohistochemistry: prelamin A level in healthy cells; type: cell-based, human; conditions: Pravastatin 100 μM for 12 hours, Zoledronate 20 μM for 6 hours; in association or alone
Method: as §4, §5, §6, §7, §8, §9, §10, §11, §12

Zmpste24^−/− mice = experiment: Progeroid phenotype and lifespan of Zmpste24^−/− mice (Example 7); type: in vivo, mouse; conditions: daily treatment with one drug alone
Method: All of the experiments on mice are governed by the rules set down by the Animal Experiment Committee of the University of Oviedo (Spain). The pravastatin (100 mg/kg/day) and the zoledronate (100 mg/kg/day) diluted in PBS are administered to the mice every day.

Row | SMILES | effect on nuclear morphology of control fibroblasts (control fibroblasts) | effect on the nuclear morphology improvement given by the pravastatin+zoledronate treatment (Zmpste24^−/− mouse cells) | effect on the nuclear morphology improvement given by the pravastatin+zoledronate treatment [2] | prelamin A level produced in healthy cells (prelamin A [3]) [%] | also measured
1 | COC(=O)[C@H](CCSC)NC(=O)c1ccc(NC[C@@H](N)CS)cc1-c1ccccc1 [FTI-277] |  |  |  |  | farnesylated and carboxymethylated progerin peak (progerin): considerable reduced; geranylgeranylated progerin peptides (progerin): appears geranylgeranylated and phosphoryl; geranyl-geranylated prelamin A peptide (prelamin A [1]): detected a peptide which mass is compatible with a geranyl-geranylated fragment of the prelamine A; quantity of farnesylated prelamin A (prelamin A [1]): reduction in the quantity of farnesyled prelamine A
2 | CC(C)=CCCC(C)=CCCC(C)=CCO [farnesol] | Neither farnesol nor geranylgeraniol have any effect | nullify the effect of the pravastatin+zoledronate treatment | nullifies the effect of the pravastatin+zoledronate treatment |  | 
3 | CC(C)=CCC/C(C)=C/CC/C(C)=C/CC/C(C)=C/CO [geranylgeraniol] | Neither farnesol nor geranylgeraniol have any effect | nullify the effect of the pravastatin+zoledronate treatment | blocks the effect of the treatment |  | 
4 | CC[C@H](C)C(=O)O[C@H]1C[C@H](O)C=C2C=C[C@H](C)[C@H](CC[C@@H](O)C[C@@H](O)CC(=O)O)[C@H]21 [pravastatin] |  |  |  | 25 | rate of deformed nuclei (sign of toxicity on healthy cells) (healthy cells): around 12%
5 | O=P(O)(O)C(O)(Cn1ccnc1)P(=O)(O)O [zoledronate, (1-hydroxy-2-imidazol-1-yl-1-phosphono-ethyl) phosphonic acid] |  |  |  | 15 | lifespan of Zmpste24^−/− mice, drug in isolation (Zmpste24^−/− mice): neither of the drugs in isolation, pravastatin or zoledronate, increases the lifespan
